This passage reports log K results from ChEMBL document CHEMBL4665634, “Inhibiting Aβ toxicity in Alzheimer's disease by a pyridine amine derivative” (Eur J Med Chem, 2019).

Experiment [1] can be described thus: Metal chelating activity assessed as Zn2+-compound complex formation by measuring binding constant in 0.1 M KNO3 at 25 degreeC.
Experiment [2] is described as follows: Metal chelating activity assessed as Cu2+-compound complex formation by measuring binding constant in 0.1 M KNO3 at 25 degreeC.

With `c1ccc(CNCc2ccccn2)nc1`, the log K in experiment [1] came to 7.6; in experiment [2], 9.3.
